Measurements from patent US6339042B1, “Herbicidal N-cyclohexadienyl heteroaryloxyacetamides” (American Cyanamid Co., priority 1999, dated 2002).

Tests used:
Settings in all cases: three weeks after treatment
Amaranthus tuberculatus [1] = assay: Pre-emergence herbicidal evaluation, AMATA; assay type: in vivo
From the text: (§1) The treated pots are then placed on greenhouse benches, watered and cared for in accordance with conventional greenhouse procedures.

Alopecurus myosuroides [2] = assay: Pre-emergence herbicidal evaluation, ALOMY; assay type: in vivo
From the text: as §1

Apera spica venti [3] = assay: Pre-emergence herbicidal evaluation, APESV; assay type: in vivo
From the text: as §1

Echinochloa crus-galli [4] = assay: Pre-emergence herbicidal evaluation, ECHCG; assay type: in vivo
From the text: as §1

Setaria viridis [5] = assay: Pre-emergence herbicidal evaluation, SETVI; assay type: in vivo
From the text: as §1

Lolium perenne [6] = assay: Pre-emergence herbicidal evaluation, LOLPE; assay type: in vivo
From the text: as §1

Triticum aestivum [7] = assay: Pre-emergence herbicidal evaluation, TRZAW; assay type: in vivo
From the text: as §1

Hordeum vulgare [8] = assay: Pre-emergence herbicidal evaluation, HORVW; assay type: in vivo
From the text: as §1

Zea mays [9] = assay: Pre-emergence herbicidal evaluation, ZEAMX; assay type: in vivo
From the text: as §1

Glycine max [10] = assay: Pre-emergence herbicidal evaluation, GLXMA; assay type: in vivo
From the text: as §1

Oryza sativum [11] = assay: Pre-emergence herbicidal evaluation, ORYSA; assay type: in vivo
From the text: as §1

Amaranthus tuberculatus [12] = assay: Post-emergence herbicidal evaluation, AMATA; assay type: in vivo
Galium aparine = assay: Post-emergence herbicidal evaluation, GALAP
Alopecurus myosuroides [13] = assay: Post-emergence herbicidal evaluation, ALOMY
Apera spica venti [14] = assay: Post-emergence herbicidal evaluation, APESV
Echinochloa crus-galli [15] = assay: Post-emergence herbicidal evaluation, ECHCG
Setaria viridis [16] = assay: Post-emergence herbicidal evaluation, SETVI
Lolium perenne [17] = assay: Post-emergence herbicidal evaluation, LOLPE
Triticum aestivum [18] = assay: Post-emergence herbicidal evaluation, TRZAW
Hordeum vulgare [19] = assay: Post-emergence herbicidal evaluation, HORVW
Zea mays [20] = assay: Post-emergence herbicidal evaluation, ZEAMX
Glycine max [21] = assay: Post-emergence herbicidal evaluation, GLXMA
Oryza sativum [22] = assay: Post-emergence herbicidal evaluation, ORYSA
Description: The compounds of the invention are tested for pre- and post-emergence herbicidal activity.
Each pot is examined three weeks after treatment and phytotoxicity is assessed according to the rating system set forth below.
These acetone solutions are diluted with water and the resulting formulations applied at dosage levels equivalent of about 0.4 to 0.1 kg per hectare of test compound per pot. After spraying the plants are placed on greenhouse benches and are cared for in the usual manner, commensurate with conventional greenhouse practices.

CCc1nnc(OCC(=O)N(C)C2=CC(C)(C)CC(C)=C2)s1 [Example 5]
7 (7 - Good herbicidal effect): phytotoxicity rating APESV (Apera spica venti [3]; 0.800 kg/ha) | phytotoxicity rating ECHCG (Echinochloa crus-galli [4]; 0.200 kg/ha) | phytotoxicity rating SETVI (Setaria viridis [5]; 0.400 kg/ha) | phytotoxicity rating LOLPE (Lolium perenne [6]; 0.800 kg/ha) | phytotoxicity rating ALOMY (Alopecurus myosuroides [13]; 0.400 kg/ha)
4 (4 - Injury): phytotoxicity rating HORVW (Hordeum vulgare [8]; 0.800 kg/ha) | phytotoxicity rating ORYSA (Oryza sativum [11]; 0.400 kg/ha) | phytotoxicity rating GALAP (Galium aparine; 0.400 kg/ha) | phytotoxicity rating LOLPE (Lolium perenne [17]; 0.400 kg/ha)
0 (0 - No effect): phytotoxicity rating AMATA (Amaranthus tuberculatus [1]; 0.100 kg/ha) | phytotoxicity rating AMATA (Amaranthus tuberculatus [1]; 0.200 kg/ha) | phytotoxicity rating SETVI (Setaria viridis [5]; 0.100 kg/ha) | phytotoxicity rating TRZAW (Triticum aestivum [7]; 0.100 kg/ha) | phytotoxicity rating TRZAW (Triticum aestivum [7]; 0.200 kg/ha) | phytotoxicity rating HORVW (Hordeum vulgare [8]; 0.100 kg/ha) | phytotoxicity rating ZEAMX (Zea mays [9]; 0.100 kg/ha) | phytotoxicity rating ZEAMX (Zea mays [9]; 0.200 kg/ha) | phytotoxicity rating ZEAMX (Zea mays [9]; 0.400 kg/ha) | phytotoxicity rating GLXMA (Glycine max [10]; 0.100 kg/ha) | phytotoxicity rating GLXMA (Glycine max [10]; 0.200 kg/ha) | phytotoxicity rating GLXMA (Glycine max [10]; 0.400 kg/ha) | phytotoxicity rating AMATA (Amaranthus tuberculatus [12]; 0.100 kg/ha) | phytotoxicity rating AMATA (Amaranthus tuberculatus [12]; 0.200 kg/ha) | phytotoxicity rating GALAP (Galium aparine; 0.100 kg/ha) | phytotoxicity rating GALAP (Galium aparine; 0.200 kg/ha) | phytotoxicity rating ALOMY (Alopecurus myosuroides [13]; 0.100 kg/ha) | phytotoxicity rating APESV (Apera spica venti [14]; 0.100 kg/ha) | phytotoxicity rating APESV (Apera spica venti [14]; 0.200 kg/ha) | phytotoxicity rating ECHCG (Echinochloa crus-galli [15]; 0.100 kg/ha) | phytotoxicity rating ECHCG (Echinochloa crus-galli [15]; 0.200 kg/ha) | phytotoxicity rating ECHCG (Echinochloa crus-galli [15]; 0.400 kg/ha) | phytotoxicity rating SETVI (Setaria viridis [16]; 0.100 kg/ha) | phytotoxicity rating SETVI (Setaria viridis [16]; 0.200 kg/ha) | phytotoxicity rating SETVI (Setaria viridis [16]; 0.400 kg/ha) | phytotoxicity rating LOLPE (Lolium perenne [17]; 0.100 kg/ha) | phytotoxicity rating TRZAW (Triticum aestivum [18]; 0.100 kg/ha) | phytotoxicity rating TRZAW (Triticum aestivum [18]; 0.200 kg/ha) | phytotoxicity rating HORVW (Hordeum vulgare [19]; 0.100 kg/ha) | phytotoxicity rating HORVW (Hordeum vulgare [19]; 0.200 kg/ha) | phytotoxicity rating HORVW (Hordeum vulgare [19]; 0.400 kg/ha) | phytotoxicity rating ZEAMX (Zea mays [20]; 0.100 kg/ha) | phytotoxicity rating ZEAMX (Zea mays [20]; 0.200 kg/ha) | phytotoxicity rating ZEAMX (Zea mays [20]; 0.400 kg/ha) | phytotoxicity rating ORYSA (Oryza sativum [22]; 0.100 kg/ha)
1 (1 - Trace effect): phytotoxicity rating AMATA (Amaranthus tuberculatus [1]; 0.400 kg/ha) | phytotoxicity rating TRZAW (Triticum aestivum [7]; 0.400 kg/ha) | phytotoxicity rating TRZAW (Triticum aestivum [7]; 0.800 kg/ha) | phytotoxicity rating GLXMA (Glycine max [10]; 0.800 kg/ha) | phytotoxicity rating ORYSA (Oryza sativum [11]; 0.100 kg/ha) | phytotoxicity rating APESV (Apera spica venti [14]; 0.400 kg/ha) | phytotoxicity rating LOLPE (Lolium perenne [17]; 0.200 kg/ha) | phytotoxicity rating TRZAW (Triticum aestivum [18]; 0.400 kg/ha) | phytotoxicity rating ORYSA (Oryza sativum [22]; 0.200 kg/ha) | phytotoxicity rating ORYSA (Oryza sativum [22]; 0.400 kg/ha)
6 (6 - Herbicidal effect): phytotoxicity rating ZEAMX (Zea mays [9]; 0.800 kg/ha)
2 (2 - Slight effect): phytotoxicity rating ECHCG (Echinochloa crus-galli [4]; 0.100 kg/ha) | phytotoxicity rating HORVW (Hordeum vulgare [8]; 0.200 kg/ha) | phytotoxicity rating ORYSA (Oryza sativum [11]; 0.200 kg/ha) | phytotoxicity rating ALOMY (Alopecurus myosuroides [13]; 0.200 kg/ha)
3 (3 - Moderate effect): phytotoxicity rating AMATA (Amaranthus tuberculatus [1]; 0.800 kg/ha) | phytotoxicity rating ALOMY (Alopecurus myosuroides [2]; 0.100 kg/ha) | phytotoxicity rating APESV (Apera spica venti [3]; 0.400 kg/ha) | phytotoxicity rating SETVI (Setaria viridis [5]; 0.200 kg/ha) | phytotoxicity rating HORVW (Hordeum vulgare [8]; 0.400 kg/ha) | phytotoxicity rating AMATA (Amaranthus tuberculatus [12]; 0.400 kg/ha)
9 (9 - Complete kill): phytotoxicity rating ALOMY (Alopecurus myosuroides [2]; 0.400 kg/ha) | phytotoxicity rating ALOMY (Alopecurus myosuroides [2]; 0.800 kg/ha) | phytotoxicity rating ECHCG (Echinochloa crus-galli [4]; 0.800 kg/ha) | phytotoxicity rating SETVI (Setaria viridis [5]; 0.800 kg/ha)
8 (8 - Approaching complete kill): phytotoxicity rating ALOMY (Alopecurus myosuroides [2]; 0.200 kg/ha) | phytotoxicity rating ECHCG (Echinochloa crus-galli [4]; 0.400 kg/ha)
5 (5 - Definite injury): phytotoxicity rating LOLPE (Lolium perenne [6]; 0.100 kg/ha) | phytotoxicity rating LOLPE (Lolium perenne [6]; 0.200 kg/ha) | phytotoxicity rating LOLPE (Lolium perenne [6]; 0.400 kg/ha) | phytotoxicity rating ORYSA (Oryza sativum [11]; 0.800 kg/ha) | phytotoxicity rating GLXMA (Glycine max [21]; 0.100 kg/ha) | phytotoxicity rating GLXMA (Glycine max [21]; 0.200 kg/ha) | phytotoxicity rating GLXMA (Glycine max [21]; 0.400 kg/ha)
